Test results published in patent publication US7713939B2, “Illudin analogs useful as antitumor agents” (priority 1996, dated 2010).

How the values were obtained:
solid tumor systems = settings: cited from earlier work
Dunning leukemia = settings: rats with Dunning leukemia; cited from earlier work
[1] = system: MV522 (human lung carcinoma cell line); experiment: 48 hour continuous exposure, trypan blue exclusion; format: cell-based; settings: 48 hour exposure
Method: (§1) To assess cytotoxic effects, various concentrations of illudins were added to cultures of MV522 (human lung carcinoma cell line) and 8392 (B-cell leukemia/lymphoma) cells for 48 hours, then cell growth/viability was determined by trypan blue exclusion. As an alternative to 48 hour continuous exposure studies, cells were plated in liquid culture in 96 well plates, exposed to various concentrations of illudins for 2 hours, pulsed with [^3H]-thymidine for one to two hours and harvested onto glass filters. The filter papers were added to vials containing scintillation fluid and residual radioactivity determined in a beta (scintillation) counter.

[2] = system: MV522 (human lung carcinoma cell line); experiment: 2 hour exposure, [3H]-thymidine incorporation; format: cell-based
Method: as §1

[3] = system: 8392 (B-cell leukemia/lymphoma) cells; experiment: 2 hour exposure, [3H]-thymidine incorporation; format: cell-based
Method: as §1

[4] = system: MV522 lung carcinoma line; settings: for efficacy in MV522 xenograft (in words): summary of the in vivo table
From the text: Several analogs were chosen for in vivo studies. […] Drug therapy was started 10 days after inoculation on a daily basis via IP route for 5 consecutive days. The animals were monitored for 3 weeks after start of therapy.
BALB/c nu/nu 4-week old female mice weighing 18-22 g were obtained from Simonsen, Inc. (Gilroy, Calif.) and maintained in the athymic mouse colony of the University of California (San Diego, Calif.) under pathogen free conditions using HEPA filter hoods. Animals were provided with sterilized food and water ad libitum in groups of 5 in plastic cages vented with polyester fiber filter covers. Clean, sterilized gowns, glove, face masks, and shoe and hood covers were worn by all personnel handling the animals. All studies were conducted in accordance with guidelines of the NIH “Guide for Care and Use of Animals” and approved by the University Institutional Animal Care and Use Committee (Protocol 3-006-2)
The MV522 lung carcinoma line used for xenograft studies was derived as described by Kelner et al. (Anticancer Res., 15: 867-872; 873-878 (1995)) and maintained in antibiotic-free RPMI 1640 (Mediatech, Herndon, Va.) supplemented with 10% fetal bovine serum and 2 mM glutamine in 37° C. humidified carbon dioxide incubator.
Each animal was earmarked and followed individually throughout the experiments. Mice received s.c. injections of the parental cell line MV522 using 10 million cells/inoculation over the shoulder. Ten days after s.c. implantation of the MV522 cells, when s.c. tumors were approximately 3×3 mm in size, animals received the desired drug and dosage. The effect of the drug on life span was calculated from median survival.
Although MV522 cells kill mice by metastases, primary s.c. tumor growth over the shoulder was monitored starting on the first day of treatment and at weekly intervals thereafter. Tumor size was measured in two perpendicular diameters. Tumor weights were estimated according to the formula w=(width)^2×length/2). Relative weights (RW) were calculated to standardized variability in tumor size among test groups at initiation of treatment using the formula RW=Wt/wi, where Wi is the tumor weight for a given animal at beginning of drug treatment and Wt is tumor weight at a subsequent time. Animals were necropsied, and organs were examined for evidence of metastases.
Comparison of survival curves between groups of animals was by the method of Kaplan and Meir. For comparison of relative tumor weights between multiple groups of animals, ordinary ANOVA followed by Turkey-Kramer multiple Comparison post ANOVA analysis was preformed (Kelner et al. (Aniticancer Res., 15: 867-872; 873-878 (1995)). Probability values (p) less than 0.05 were considered statistically significant.

[5] = system: 8392 (B-cell leukemia/lymphoma) cells; experiment: 48 hour continuous exposure, trypan blue exclusion; format: cell-based; settings: 48 hour exposure
Method: as §1

| Compound | IC50 [1] | IC50 [2] | IC50 [3] | also measured |
| --- | --- | --- | --- | --- |
| CC1=C2C(=CC(C)(C)[C@@H]2O)C(=O)[C@](C)(O)C12CC2 [Illudin M] | – | – | – | therapeutic index (solid tumor systems): low; life span (Dunning leukemia): significantly increased |
| CC1=C(CSc2ccc(O)cc2)C2=C(C)C3(CC3)C(C)(O)C(=O)C2=C1 (stereo not shown) [Compound 23] | 2.75 ± 0.51 µM | 2.92 ± 1.14 µM | 138 ± 13 µM | – |
| CC1=C(CSCc2ccccc2)C2=C(C)C3(CC3)C(C)(O)C(=O)C2=C1 (stereo not shown) [Compound 24] | – | – | 12.8 ± 2.14 µM | – |
| COC(C)(C)OCC1=C(C)C=C2C(=O)C(C)(O)C3(CC3)C(C)=C21 (stereo not shown) [Compound 21] | 0.93 ± 0.25 µM | – | 34.3 ± 9.4 µM | efficacy in MV522 xenograft (in words) [4]: more efficacious than HMAF |
| CC1=C2C(=CC3(C)COCOC23)C(=O)C(C)(O)C12CC2 (stereo not shown) [Compound 14] | – | 0.115 ± 0.03 µM | 9.65 ± 1.2 µM | – |
| CC1=C(CC2CC(C=O)CC(C=O)C2O)C2=C(C)C3(CC3)C(C)(O)C(=O)C2=C1 (mixture of isomers) [Compound 13] | – | 5.12 ± 0.65 µM | – | – |
| CC(=O)OCOCC1=C(C)C=C2C(=O)C(C)(O)C3(CC3)C(C)=C21 (stereo not shown) [Compound 8] | 0.63 ± 0.08 µM | 0.87 ± 0.09 µM | – | IC50 [5]: 15.1 ± 2.2 µM |
| CC1=C(CSCC(O)CO)C2=C(C)C3(CC3)C(C)(O)C(=O)C2=C1 (stereo not shown) [Compound 32] | – | 0.595 ± 0.185 µM | > 50 µM | efficacy in MV522 xenograft (in words) [4]: effective |
| CC1=C(CCCO)C2=C(C)C3(CC3)C(C)(O)C(=O)C2=C1 (stereo not shown) [Compound 9] | – | – | 47.1 ± 11 µM | IC50 [5]: 15.1 ± 2.2 µM |
| CC1=C(COCCO)C2=C(C)C3(CC3)C(C)(O)C(=O)C2=C1 (stereo not shown) [Compound 22] | 0.68 ± 0.18 µM | – | 31.7 ± 1.4 µM | – |
| CO[C@@]12[C@H](COC(N)=O)C3=C(C(=O)C(C)=C(N)C3=O)N1C[C@@H]1N[C@@H]12 [Mitomycin C, reference compound] | – | – | – | day before which all animals succumbed ([4]; mouse, in vivo): < 31 days |
| CC1=C2C=CC=C2C(=O)C2(OCCO2)C12CC2 [Compound 33] | 4.6 ± 0.2 µM | > 4 µM | 29.9 ± 3.3 µM | efficacy in MV522 xenograft (in words) [4]: effective |
| COC(=O)CSCC1=C(C)C=C2C(=O)C(C)(O)C3(CC3)C(C)=C21 (stereo not shown) [Compound 25] | – | – | > 25 µM | – |
| CC1=C(C=O)C2=C(C)C3(CC3)C(C)(O)C(=O)C2=C1 (stereo not shown) [Compound 11] | – | 4.9 ± 0.9 µM | > 100 µM | IC50 [5]: 40.4 ± 6.7 µM |
| CCOCC1=C(C)C=C2C(=O)C(C)(O)C3(CC3)C(C)=C21 (stereo not shown) [Compound 16] | – | – | – | efficacy in MV522 xenograft (in words) [4]: effective |
| CC1=C(CCC=O)C2=C(C)C3(CC3)C(C)(O)C(=O)C2=C1 (stereo not shown) [Compound 10] | – | – | 29.4 ± 1.6 µM | IC50 [5]: 14.5 ± 1.65 µM |
